Laboratory results from patent US20100179128A1, “XANTHINE DERIVATIVES AS SELECTIVE HM74A AGONISTS” (priority 2005, published 2010).

Molecular target: T1, Human HM74A (Homo sapiens, UniProt Q8TDS4)
T1 construct: expressed in transfected cells; P2 membrane fractions
Assay: [35S]-GTPγS binding assay on HM74A membranes (10 μl and 50 μl formats)
Type: biochemical
Settings: 10 μl and/or 50 μl assay, in which they were tested; +/−0.3 log unit; read-out: pEC50 in the [35S]-GTPγS binding assays (converted)
Description: For transient transfections, HEK293T cells (HEK293 cells stably expressing the SV40 large T-antigen) were maintained in DMEM containing 10% foetal calf serum and 2 mM glutamine. Cells were seeded in 90 mm culture dishes and grown to 60-80% confluence (18-24 h) prior to transfection. Human HM74A (GenBank™ accession number AY148884) was subcloned in to a mammalian expression vector (pcDNA3; Invitrogen) and transfected using Lipofectamine reagent. For transfection, 9 μg of DNA was mixed with 30 μl Lipofectamine in 0.6 ml of Opti-MEM (Life Technologies Inc.) and was incubated at room temperature for 30 min prior to the addition of 1.6 ml of Opti-MEM. Cells were exposed to the Lipofectamine/DNA mixture for 5 h and 6 ml of 20% (v/v) foetal calf serum in DMEM was then added. Cells were harvested 48 h after transfection. Pertussis toxin treatment was carried out by supplementation into media at 50 ngml^−1 for 16 h. All transient transfection studies involved co-transfection of receptor together with the Gi/o G protein, Go1α.
For generation of stable cell lines the above method was used to transfect CHO-K1 cells seeded in six well dishes grown to 30% confluence. These cells were maintained in DMEM F-12 HAM media containing 10% foetal calf serum and 2 mM glutamine. 48 h post-transfection the media was supplemented with 400 μg/ml Geneticin (G418, Gibco) for selection of antibiotic resistant cells. Clonal CHO-K1 cell lines stably expressing HM74A were confirmed by [^35S]-GTPγS binding measurements, following the addition of nicotinic acid.
P2 membrane preparation—Plasma membrane-containing P2 particulate fractions were prepared from cell pastes frozen at −80° C. after harvest. All procedures were carried out at 4° C. Cell pellets were resuspended in 1 ml of 10 mM Tris-HCl and 0.1 mM EDTA, pH 7.5 (buffer A) and by homogenisation for 20 s with a Ultra Turrax followed by passage (5 times) through a 25-gauge needle. Cell lysates were centrifuged at 1,000 g for 10 min in a microcentrifuge to pellet the nuclei and unbroken cells and P2 particulate fractions were recovered by microcentrifugation at 16,000 g for 30 min. P2 particulate fractions were resuspended in buffer A and stored at −80° C. until required.
[^35S]-GTPγS binding—assays were performed at room temperature in 384-well format based on methods described previously, (Wieland, T. and Jakobs, K. H. (1994) Methods Enzymol. 237, 3-13). Briefly, the dilution of standard or test compounds were prepared and added to a 384-well plate in a volume of 10 μl. Membranes (HM74A or HM74) were diluted in assay buffer (20 mM HEPES, 100 mM NaCl, 10 mM MgCl2, pH7.4) supplemented with saponin (60 μg/ml), Leadseeker WGA beads (Amersham; 250 μg/well) and 10 μM GDP, so that the 20 μl volume added to each well contains 5 μg of membranes. [^35S]-GTPγS (1170 Ci/mmol, Amersham) was diluted (1:1500) in assay buffer and 20 μl added to each well. Following the addition of the radioligand, the plates were sealed, pulse spun and incubated for 4 hours at room temperature. At the end of the incubation period the plates were read on a Leadseeker machine (VIEWLUX PLUS; Perkin-Elmer) to determine the levels of specific binding.
These assays were refined by reducing the final assay volume to 10 μl. For this 10 μl assay a revised protocol was used. This involved the use of only 100 nl of standard or test compound per well of a 384-well plate and 1.5 μg membrane and 100 μg Leadseeker WGA beads. For the low volume protocol, membrane, beads and [^35S]-GTPγS were mixed together and then 10 μl of this mix were dispensed to each well. Incubation and plate read were identical for the 10 μl and 50 μl assays.
All exemplified compounds were tested in one or both of the [^35S]-GTPγS binding assays described above (i.e. the 10 μl and 50 μl assays).
Data was analysed by curve fitting as carried out using a Four Parameter Logistical equation using the XC50 software package (max 2 points deleted from any one curve). […]

T1 sequence (Q8TDS4 whole entry): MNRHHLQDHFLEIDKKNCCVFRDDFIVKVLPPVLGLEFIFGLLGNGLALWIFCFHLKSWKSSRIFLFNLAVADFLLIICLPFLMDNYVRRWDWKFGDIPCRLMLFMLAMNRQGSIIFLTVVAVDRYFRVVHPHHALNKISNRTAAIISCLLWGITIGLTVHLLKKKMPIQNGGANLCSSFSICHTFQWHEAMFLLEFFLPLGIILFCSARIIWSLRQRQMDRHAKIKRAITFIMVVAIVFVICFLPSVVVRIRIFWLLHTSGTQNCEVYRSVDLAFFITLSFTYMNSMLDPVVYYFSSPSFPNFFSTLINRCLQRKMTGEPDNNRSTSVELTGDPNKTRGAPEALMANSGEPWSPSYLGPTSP

Question: `CN1CCN(CCCn2c(=O)n(CCCc3nc(Cc4ccc(F)cc4F)no3)c(=O)c3[nH]c(Cl)nc32)CC1` [8-chloro-1-(3-{3-[(2,4-difluorophenyl)methyl]-1,2,4-oxadiazol-5-yl}propyl)-3-[3-(4-methyl-1-piperazinyl)propyl]-3,7-dihydro-1H-purine-2,6-dione] was tested. Which EC50 did it give?
Answer: Its EC50 is > 50.1 µM.

Question: How did the EC50 turn out when `CN(C)CCn1c(=O)n(CCCc2nc(Cc3ccc(F)cc3F)no2)c(=O)c2[nH]c(Cl)nc21` [8-chloro-1-(3-{3-[(2,4-difluorophenyl)methyl]-1,2,4-oxadiazol-5-yl}propyl)-3-[2-(dimethylamino)ethyl]-3,7-dihydro-1H-purine-2,6-dione] was run?
Answer: The EC50 was > 50.1 µM.

Question: With `O=c1c2[nH]c(Cl)nc2n(CCN2CCCCCC2)c(=O)n1CCCc1nc(Cc2ccc(F)cc2F)no1` [8-chloro-1-(3-{3-[(2,4-difluorophenyl)methyl]-1,2,4-oxadiazol-5-yl}propyl)-3-[2-(hexahydro-1H-azepin-1-yl)ethyl]-3,7-dihydro-1H-purine-2,6-dione] as the compound, how does the EC50 read?
Answer: The EC50 was > 50.1 µM.

Question: For `O=c1c2[nH]c(Cl)nc2n(CCN2CCCC2)c(=O)n1CCCc1nc(Cc2ccc(F)cc2F)no1` [8-chloro-1-(3-{3-[(2,4-difluorophenyl)methyl]-1,2,4-oxadiazol-5-yl}propyl)-3-[2-(1-pyrrolidinyl)ethyl]-3,7-dihydro-1H-purine-2,6-dione], which EC50 is on record?
Answer: Its EC50 is > 50.1 µM.

Question: For `CN(C)C(C)(C)Cn1c(=O)n(CCCc2nc(Cc3ccc(F)cc3F)no2)c(=O)c2[nH]c(Cl)nc21` [8-chloro-1-(3-{3-[(2,4-difluorophenyl)methyl]-1,2,4-oxadiazol-5-yl}propyl)-3-[2-(dimethylamino)-2-methylpropyl]-3,7-dihydro-1H-purine-2,6-dione], which EC50 is on record?
Answer: Its EC50 is > 50.1 µM.

Question: `CN(C)CCCn1c(=O)n(CCCc2nc(Cc3ccc(F)cc3F)no2)c(=O)c2[nH]c(Cl)nc21` [8-chloro-1-(3-{3-[(2,4-difluorophenyl)methyl]-1,2,4-oxadiazol-5-yl}propyl)-3-[3-(dimethylamino)propyl]-3,7-dihydro-1H-purine-2,6-dione] was tested. Which EC50 did it give?
Answer: The EC50 was > 50.1 µM.

Question: With `O=c1c2[nH]c(Cl)nc2n(CCN2CCCCC2)c(=O)n1CCCc1nc(Cc2ccc(F)cc2F)no1` [8-chloro-1-(3-{3-[(2,4-difluorophenyl)methyl]-1,2,4-oxadiazol-5-yl}propyl)-3-[2-(1-piperidinyl)ethyl]-3,7-dihydro-1H-purine-2,6-dione] as the compound, how does the EC50 read?
Answer: Its EC50 is > 50.1 µM.
